Laboratory results taken from patent US9290515B2, “Cephem derivative having catechol group” (SHIONOGI & CO., LTD., priority 2011, dated 2016).
In brackets after ≈: the same amount, converted by molar mass. Where two headings read alike, the source gives them in different places.

Tests used:
Format in all cases: cell-based
P. aeruginosa SR24 = assay: MIC by broth microdilution (CLSI), P. aeruginosa SR24; conditions: Pseudomonas aeruginosa
Procedure: (§1) Measurement of a minimum growth inhibition concentration (MIC: μg/mL) was performed according to CLSI (Clinical and Laboratory Standards Institute) method, by broth microdilution method, using an inoculation microbe amount of 10000 cfu/well and cation-adjusted Mueller Hinton broth containing human-derived 20 μM apo-transferrin as a test medium.

[1] = tested on: P. aeruginosa SR27001(MDRP, IMP-1+); assay: MIC by broth microdilution (CLSI), P. aeruginosa SR27001; conditions: Pseudomonas aeruginosa, read-out: minimum growth inhibition concentration (MIC)
Procedure: as §1

[2] = tested on: E. coli ATCC BAA-196_TEM-10; assay: MIC by broth microdilution (CLSI), E. coli ATCC BAA-196; conditions: Escherichia coli
Procedure: as §1

[3] = tested on: K. pneumoniae ATCC 700603_SHV18; assay: MIC by broth microdilution (CLSI), K. pneumoniae ATCC 700603; conditions: Klebsiella pneumoniae
Procedure: as §1

[4] = tested on: P. aeruginosa SR27060(metallo); assay: MIC by broth microdilution (CLSI), P. aeruginosa SR27060; conditions: Pseudomonas aeruginosa; P. aeruginosa SR27060, IMP-1, MBL producing carbapenem-resistant strain; 10000 cfu/well; cation-adjusted Mueller Hinton broth with 20 μM human apo-transferrin; read-out: minimum growth inhibition concentration (MIC)
Procedure: as §1

[5] = P. aeruginosa SR24, Ceftazidime-sensitive strain, 10000 cfu/well, cation-adjusted Mueller Hinton broth with 20 μM human apo-transferrin, read-out: minimum growth inhibition concentration (MIC)
[6] = P. aeruginosa SR27001, MDRP, IMP-1, MBL producing carbapenem-resistant strain, 10000 cfu/well, cation-adjusted Mueller Hinton broth with 20 μM human apo-transferrin
[7] = ATCCBAA196, E. coli ATCC BAA-196, TEM-10, ESBL producing strain, 10000 cfu/well, cation-adjusted Mueller Hinton broth with 20 μM human apo-transferrin, read-out: minimum growth inhibition concentration (MIC)
[8] = ATCC700603, K. pneumoniae ATCC 700603, SHV-18, ESBL producing strain, 10000 cfu/well, cation-adjusted Mueller Hinton broth with 20 μM human apo-transferrin, read-out: minimum growth inhibition concentration (MIC)

Structure (SMILES) | MIC (P. aeruginosa SR24; [5]) [µg/mL] | MIC [1, 6] [µg/mL] | MIC [2, 7] [µg/mL] | MIC [3, 8] [µg/mL] | MIC [4] [µg/mL] | MIC (P. aeruginosa SR24; SR24, read-out: minimum growth inhibition concentration (MIC)) [µg/mL] | MIC [1] [µg/mL] | MIC ([2]; ATCCBAA196, read-out: minimum growth inhibition concentration (MIC)) [µg/mL] | MIC ([3]; ATCC700603, read-out: minimum growth inhibition concentration (MIC)) [µg/mL]
NCC[N+]1(CC2=C(C(=O)[O-])N3C(=O)[C@@H](NC(=O)/C(=N\OC(CNC(=O)c4ccc(O)c(O)c4Cl)C(=O)O)c4nc(N)sc4Cl)[C@H]3SC2)CCCC1 (some centres unmarked) [Compound I-16] | 0.25 (≈ 0.317 µM) | 2 (≈ 2.54 µM) | 0.125 (≈ 0.159 µM) | 1 (≈ 1.27 µM) |  |  |  |  | 
Nc1nc(/C(=N/OC(CNC(=O)c2ccc(O)c(O)c2Cl)C(=O)[O-])C(=O)N[C@@H]2C(=O)N3C(C(=O)[O-])=C(C[N+]45CCC(CC4)CC5)CS[C@H]23)ns1.[Na+] (some centres unmarked) [Compound I-17] | 0.25 |  | 4 | 8 |  |  |  |  | 
NCC[N+]1(CC2=C(C(=O)[O-])N3C(=O)[C@@H](NC(=O)/C(=N\OCc4ccc(O)c(O)c4C(=O)O)c4csc(N)n4)[C@H]3SC2)CCCC1 [Compound I-19] | 0.5 (≈ 0.756 µM) |  | 8 (≈ 12.1 µM) |  |  |  |  |  | 
CC(C)(O/N=C(\C(=O)N[C@@H]1C(=O)N2C(C(=O)[O-])=C(C[N@+]3(C)[C@@H]4CC[C@H]3C[C@@H](N)C4)CS[C@H]12)c1ccc(O)c(O)c1Cl)C(=O)O [Compound I-20] |  |  | 2 (≈ 3.07 µM) |  | 4 (≈ 6.13 µM) |  |  |  | 
Nc1nc(/C(=N/OC(CNC(=O)c2ccc(O)c(O)c2Cl)C(=O)[O-])C(=O)N[C@@H]2C(=O)N3C(C(=O)[O-])=C(C[N+]45CCCC4CCC5)CS[C@H]23)cs1.[Na+] (some centres unmarked) [Compound I-24] | 0.5 | 16 | 1 | 0.5 |  |  |  |  | 
C[N+]1(CC2=C(C(=O)[O-])N3C(=O)[C@@H](NC(=O)/C(=N\OC(CNC(=O)c4ccc(O)c(O)c4Cl)C(=O)[O-])c4csc(N)n4)[C@H]3SC2)[C@@H]2CC[C@H]1C[C@@H](NC(=O)CC[C@H](N)C(=O)O)C2.[Na+] (some centres unmarked) [Compound I-26] |  |  |  |  |  | 1 | 4 | 1 | 1

Continued, in another order:

MIC (P. aeruginosa SR24; [5]) [µg/mL] | MIC [1, 6] [µg/mL] | MIC [2, 7] [µg/mL] | MIC [3, 8] [µg/mL] | Structure (SMILES) | MIC [4] [µg/mL] | MIC (P. aeruginosa SR24; SR24, read-out: minimum growth inhibition concentration (MIC)) [µg/mL] | MIC [1] [µg/mL] | MIC ([2]; ATCCBAA196, read-out: minimum growth inhibition concentration (MIC)) [µg/mL] | MIC ([3]; ATCC700603, read-out: minimum growth inhibition concentration (MIC)) [µg/mL]
0.5 | 4 | 2 | 1 | Nc1nc(/C(=N/OC(CNC(=O)c2ccc(O)c(O)c2Cl)C(=O)[O-])C(=O)N[C@@H]2C(=O)N3C(C(=O)[O-])=C(C[N+]4(CCNC(=O)CC[C@H](N)C(=O)O)CCCC4)CS[C@H]23)cs1.[Na+] (some centres unmarked) [Compound I-25] |  |  |  |  | 
0.25 | 4 | 2 | 0.5 | Nc1nc(/C(=N/OC(CNC(=O)c2ccc(O)c(O)c2Cl)C(=O)[O-])C(=O)N[C@@H]2C(=O)N3C(C(=O)[O-])=C(C[N+]4(CCNC(=O)C[C@@H](N)CC(=O)O)CCCC4)CS[C@H]23)cs1.[Na+] (some centres unmarked) [Compound I-27] |  |  |  |  | 
0.25 | 8 | 0.5 | 1 | Nc1nc(/C(=N/OC(CNC(=O)c2ccc(O)c(O)c2Cl)C(=O)[O-])C(=O)N[C@@H]2C(=O)N3C(C(=O)[O-])=C(C[N+]45CCCC4CCC5)CS[C@H]23)c(Cl)s1.[Na+] (some centres unmarked) [Compound I-28] |  |  |  |  | 
0.5 | 2 | 0.5 | 1 | Nc1nc(/C(=N/OC(CNC(=O)c2ccc(O)c(O)c2Cl)C(=O)[O-])C(=O)N[C@@H]2C(=O)N3C(C(=O)[O-])=C(C[N+]4(CCNC(=O)CC[C@H](N)C(=O)O)CCCC4)CS[C@H]23)c(Cl)s1.[Na+] (some centres unmarked) [Compound I-29] |  |  |  |  | 
0.25 | 8 | 0.5 | 2 | Nc1nc(/C(=N/OC(CNC(=O)c2ccc(O)c(O)c2Cl)C(=O)[O-])C(=O)N[C@@H]2C(=O)N3C(C(=O)[O-])=C(C[N+]4(CCNC(=O)C[C@@H](N)CC(=O)O)CCCC4)CS[C@H]23)c(Cl)s1.[Na+] (some centres unmarked) [Compound I-30] |  |  |  |  | 
0.5 | 1 | 0.25 | 0.25 | NCC[N+]1(CC2=C(C(=O)[O-])N3C(=O)[C@@H](NC(=O)/C(=N\OC(C[C@H](NC(=O)c4ccc(O)c(O)c4Cl)C(=O)[O-])C(=O)O)c4csc(N)n4)[C@H]3SC2)CCCC1.[Na+] (some centres unmarked) [Compound I-31] |  |  |  |  | 
0.25 | 2 | 0.5 | 1 | Nc1nc(/C(=N/OC(C[C@H](NC(=O)c2ccc(O)c(O)c2Cl)C(=O)[O-])C(=O)[O-])C(=O)N[C@@H]2C(=O)N3C(C(=O)[O-])=C(C[N+]4(CCNC(=O)CC[C@H](N)C(=O)O)CCCC4)CS[C@H]23)cs1.[Na+].[Na+] (some centres unmarked) [Compound I-32] |  |  |  |  | 
